The experiment deals with T1, human NEP (Homo sapiens, UniProt P08473).
T1 construct: purchased R&D Systems, Minneapolis, Minn; 1182-ZN
T1 sequence (P08473 whole entry): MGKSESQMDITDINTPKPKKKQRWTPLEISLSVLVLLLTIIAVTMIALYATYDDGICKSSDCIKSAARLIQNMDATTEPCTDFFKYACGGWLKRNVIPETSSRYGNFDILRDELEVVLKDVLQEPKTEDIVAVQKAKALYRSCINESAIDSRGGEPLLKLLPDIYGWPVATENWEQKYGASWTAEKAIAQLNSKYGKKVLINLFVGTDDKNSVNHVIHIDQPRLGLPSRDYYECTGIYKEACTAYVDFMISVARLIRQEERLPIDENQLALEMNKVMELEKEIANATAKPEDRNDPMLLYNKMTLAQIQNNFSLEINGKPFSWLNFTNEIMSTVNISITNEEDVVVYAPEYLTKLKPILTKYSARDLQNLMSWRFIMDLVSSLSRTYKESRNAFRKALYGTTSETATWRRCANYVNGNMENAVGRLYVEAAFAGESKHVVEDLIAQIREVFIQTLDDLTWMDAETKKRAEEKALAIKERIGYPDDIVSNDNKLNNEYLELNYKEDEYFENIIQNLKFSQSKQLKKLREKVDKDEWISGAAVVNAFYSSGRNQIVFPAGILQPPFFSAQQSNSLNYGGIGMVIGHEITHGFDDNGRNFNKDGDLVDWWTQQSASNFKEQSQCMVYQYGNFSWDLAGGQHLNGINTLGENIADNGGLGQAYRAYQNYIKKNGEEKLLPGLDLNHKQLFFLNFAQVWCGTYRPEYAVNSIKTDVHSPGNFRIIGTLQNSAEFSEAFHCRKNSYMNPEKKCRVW
Nature of the experiment: In vitro enzyme inhibition assay at human NEP (Assay 1). It counts as biochemical. Conditions: recombinant enzyme, fluorogenic peptide substrate, 37° C. In outline:
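Recombinant enzyme preincubated with compound 30 min at 37 °C, then 10 μM Mca-D-Arg-Arg-Leu-Dap-(Dnp)-OH added in 50 mM HEPES pH 7.5, 100 mM NaCl, 0.01% Tween-20, 10 μM ZnSO4; stopped after 20 min with acetic acid. Fluorescence read at 320/405 nm; Ki from nonlinear fit of v=v0/[1+(I/K′)], reported as pKi.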
Broadly, the Ki is the equilibrium dissociation constant of an inhibitor or competing ligand from its target. `O=C(NCCO)c1cc(C(=O)NN(Cc2ccc(-c3ccccc3)cc2)C[C@@H](O)C(=O)O)[nH]n1` [Example 2-2, (R)-3-{N-Biphenyl-4-ylmethyl-N′-[5-(2-hydroxyethylcarbamoyl)-2H-pyrazole-3-carbonyl]hydrazino}-2-hydroxypropionic acid]: the Ki was 1.26 to 10 nM.
For `COCCN(C)C(=O)c1cc(C(=O)NN(Cc2ccc(-c3ccccc3)cc2)C[C@@H](O)C(=O)O)[nH]n1` [Example 2-5, (R)-3-(N-Biphenyl-4-ylmethyl-N′-{5-[(2-methoxyethyl)methylcarbamoyl]-2H-pyrazole-3-carbonyl}hydrazino)-2-hydroxypropionic acid] the value was 12.6 to 100 nM.
The result for `COc1ccccc1-c1cc(C(=O)NN(Cc2ccc(-c3cc(Cl)ccc3F)cc2)C[C@@H](O)C(=O)O)on1` [Example 8-15, (R)-3-{N-(5′-Chloro-2′-fluoro-biphenyl-4-ylmethyl)-N′-[3-(2-methoxy-phenyl)-isoxazole-5-carbonyl]-hydrazino}-2-hydroxy-propionic acid] reads no more than 1 nM; that for `O=C(NN(Cc1ccc(-c2cc(Cl)ccc2F)cc1)C[C@@H](O)C(=O)O)c1cc(-c2ccccc2O)n[nH]1` [Example 8-38, (R)-3-{N-(5′-Chloro-2′-fluoro-biphenyl-4-ylmethyl)-N′-[5-(2-hydroxy-phenyl)-2H-pyrazole-3-carbonyl]-hydrazino}-2-hydroxy-propionic acid], no more than 1 nM; that for `O=C(NN(Cc1ccc(-c2cccc(Cl)c2)c(F)c1)C[C@@H](O)C(=O)O)c1cc(O)no1` [Example 10-6, (R)-3-[N-(3′-Chloro-2-fluoro-biphenyl-4-ylmethyl)-N′-(3-hydroxy-isoxazole-5-carbonyl)-hydrazino]-2-hydroxy-propionic acid], no more than 1 nM.
For `O=C(NN(Cc1ccc(-c2cccc(Cl)c2)cc1)C[C@@H](O)C(=O)O)c1ccc2[nH]nnc2c1F` [Example 4-42, (R)-3-[N-(3′-Chlorobiphenyl-4-ylmethyl)-N′-(4-fluoro-1H-benzotriazole-5-carbonyl)-hydrazino]-2-hydroxy-propionic acid] the value was 1.26 to 10 nM.
In the case of `O=C(NN(Cc1ccc(-c2cc(Cl)ccc2F)cc1Cl)C[C@@H](O)C(=O)O)c1c[nH]nn1` [Example 10-10, (R)-3-[N-(3,5′-Dichloro-2′-fluoro-biphenyl-4-ylmethyl)-N′-(1H-[1,2,3]triazole-4-carbonyl)-hydrazino]-2-hydroxy-propionic acid], the Ki was no more than 1 nM.
The result for `O=C(NN(Cc1ccc(-c2cccc(Cl)c2)cc1)C[C@@H](O)C(=O)O)c1cnc(O)nc1` [Example 4-34, (R)-3-[N-(3′-Chlorobiphenyl-4-ylmethyl)-N′-(2-hydroxy-pyrimidine-5-carbonyl)-hydrazino]-2-hydroxy-propionic acid] reads no more than 1 nM; that for `O=C(O)c1cc(C(=O)NN(Cc2ccc(-c3ccccc3)cc2)C[C@@H](O)C(=O)O)[nH]n1` [Example 1, 5-[N′-Biphenyl-4-ylmethyl-N′-((R)-2-carboxy-2-hydroxyethyl)hydrazinocarbonl]-1H-pyrazole-3-carboxylic Acid], no more than 1 nM.
The result for `O=C(NN(Cc1ccc(-c2cccc(Cl)c2)cc1)C[C@@H](O)C(=O)O)c1cc(C(=O)N2CC(F)C2)n[nH]1` [Example 4-18, (R)-3-{N-(3′-Chlorobiphenyl-4-ylmethyl)-N′-[5-(3-fluoroazetidine-1-carbonyl)-2H-pyrazole-3-carbonyl]-hydrazino}-2-hydroxy-propionic acid] reads no more than 1 nM; that for `O=C(NN(Cc1ccc(-c2cccc(Cl)c2)cc1)C[C@@H](O)C(=O)O)c1cc(-c2ccccn2)n[nH]1` [Example 4-21, (R)-3-[N-(3′-Chlorobiphenyl-4-ylmethyl)-N′-(5-pyridin-2-yl-2H-pyrazole-3-carbonyl)-hydrazino]-2-hydroxy-propionic acid], 1.26 to 10 nM.
For `O=C(NN(Cc1ccc(-c2cccc(Cl)c2)c(Cl)c1)C[C@@H](O)C(=O)O)c1cc(O)no1` [Example 10-3, (R)-3-[N-(2,3′-Dichloro-biphenyl-4-ylmethyl)-N′-(3-hydroxy-isoxazole-5-carbonyl)-hydrazino]-2-hydroxy-propionic acid] the value was no more than 1 nM.
On to `O=C(NN(Cc1ccc(-c2ccccc2)cc1)C[C@@H](O)C(=O)O)c1cc(C(=O)N2CCCCC2)n[nH]1` [Example 2-14, (R)-3-{N-Biphenyl-4-ylmethyl-N′-[5-(piperidine-1-carbonyl)-2H-pyrazole-3-carbonyl]hydrazino}-2-hydroxypropionic acid], for which the Ki was 12.6 to 100 nM.
The result for `O=C(NN(Cc1ccc(-c2cc(Cl)ccc2F)cc1)C[C@@H](O)C(=O)O)c1cc(O)n(-c2ccccn2)n1` [Example 8-51, (R)-3-[N-(5′-Chloro-2′-fluoro-biphenyl-4-ylmethyl)-N′-(5-hydroxy-1-pyridin-2-yl-1H-pyrazole-3-carbonyl)-hydrazino]-2-hydroxy-propionic acid] reads 1.26 to 10 nM.
As to `CCOc1cc(C(=O)NN(Cc2ccc(-c3cc(Cl)ccc3F)cc2)C[C@@H](O)C(=O)O)n[nH]1` [Example 8-57, (R)-3-[N-(5′-Chloro-2′-fluoro-biphenyl-4-ylmethyl)-N′-(5-ethoxy-1H-pyrazole-3-carbonyl)-hydrazino]-2-hydroxy-propionic acid], the Ki is 1.26 to 10 nM.
For `O=C(NN(Cc1ccc(-c2cc(Cl)ccc2F)cc1)C[C@@H](O)C(=O)O)c1nn(-c2ccccc2Cl)c(=O)[nH]1` [Example 8-66, (R)-3-{N-(5′-Chloro-2′-fluoro-biphenyl-4-ylmethyl)-N′-[1-(2-chloro-phenyl)-5-oxo-4,5-dihydro-1H-[1,2,4]triazole-3-carbonyl]-hydrazino}-2-hydroxy-propionic acid] the value was 1.26 to 10 nM; for `O=C(NN(Cc1ccc(-c2cc(Cl)ccc2F)cc1)C[C@@H](O)C(=O)O)c1cc(-c2cccc(Cl)c2)no1` [Example 8-16, (R)-3-{N-(5′-Chloro-2′-fluoro-biphenyl-4-ylmethyl)-N′-[3-(3-chloro-phenyl)-isoxazole-5-carbonyl]-hydrazino}-2-hydroxy-propionic acid], no more than 1 nM.
Consider `O=C(NN(Cc1ccc(-c2cccc(Cl)c2)cc1F)C[C@@H](O)C(=O)O)c1cc(O)no1` [Example 9A, (R)-3-[N-(3′-Chloro-3-fluorobiphenyl-4-ylmethyl)-N′-(3-hydroxyisoxazole-5-carbonyl)-hydrazino]-2-hydroxpropionic Acid], for which the Ki was no more than 1 nM.
The result for `Cc1cccc(-c2ccc(CN(C[C@H](O)C(=O)O)NC(=O)c3cc(O)no3)cc2)c1` [Example 5-4, (S)-2-Hydroxy-3-[N′-(3-hydroxy-isoxazole-5-carbonyl)-N-(3′-methyl-biphenyl-4-ylmethyl)-hydrazino]-propionic acid] reads no more than 1 nM; that for `O=C(NN(Cc1ccc(-c2cc(Cl)ccc2Cl)cc1)C[C@@H](O)C(=O)O)c1nnn[nH]1` [Example 8-60, (R)-3-[N-(2′,5′-Dichloro-biphenyl-4-ylmethyl)-N′-(1H-tetrazole-5-carbonyl)-hydrazino]-2-hydroxy-propionic acid], no more than 1 nM.
For `O=C(NN(Cc1ccc(-c2cc(Cl)ccc2F)cc1)C[C@@H](O)C(=O)O)c1cc(-c2cc(Cl)ccc2Cl)n[nH]1` [Example 8-41, (R)-3-{N-(5′-Chloro-2′-fluoro-biphenyl-4-ylmethyl)-N′-[5-(2,5-dichloro-phenyl)-2H-pyrazole-3-carbonyl]-hydrazino}-2-hydroxy-propionic acid] the value was no more than 1 nM; for `CC(=O)c1cc(C(=O)NN(Cc2ccc(-c3cc(Cl)ccc3Cl)cc2)C[C@H](O)C(=O)O)[nH]n1` [Example 8-48, (S)-3-[N′-(5-Acetyl-2H-pyrazole-3-carbonyl)-N-(2′,5′-dichloro-biphenyl-4-ylmethyl)-hydrazino]-2-hydroxy-propionic acid], 1.26 to 10 nM; for `O=C(NN(Cc1ccc(-c2cc(Cl)ccc2F)cc1)C[C@@H](O)C(=O)O)c1nn(-c2ccccc2)c(=O)[nH]1` [Example 8-64, (R)-3-[N-(5′-Chloro-2′-fluoro-biphenyl-4-ylmethyl)-N′-(5-oxo-1-phenyl-4,5-dihydro-1H-[1,2,4]triazole-3-carbonyl)-hydrazino]-2-hydroxy-propionic acid], no more than 1 nM.
For `O=C(NN(Cc1ccc(-c2cccc(Cl)c2)cc1)C[C@@H](O)C(=O)O)c1cc(C(=O)N2CCC2)n[nH]1` [Example 4-12, (R)-3-[N′-[5-(Azetidine-1-carbonyl)-2H-pyrazole-3-carbonyl]-N-(3′-chlorobiphenyl-4-ylmethyl)-hydrazino]-2-hydroxy-propionic acid] the value was no more than 1 nM; for `O=C(NN(Cc1ccc(-c2cccc(Cl)c2)cc1Cl)C[C@@H](O)C(=O)O)c1c[nH]nn1` [Example 10-11, (R)-3-[N-(3,3′-Dichloro-biphenyl-4-ylmethyl)-N′-(1H-[1,2,3]triazole-4-carbonyl)-hydrazino]-2-hydroxy-propionic acid], no more than 1 nM; for `O=C(NN(Cc1ccc(-c2cc(Cl)ccc2F)cc1Cl)C[C@@H](O)C(=O)O)c1cc(O)no1` [Example 10-7, (R)-3-[N-(3,5′-Dichloro-2′-fluoro-biphenyl-4-ylmethyl)-N′-(3-hydroxy-isoxazole-5-carbonyl)-hydrazino]-2-hydroxy-propionic acid], no more than 1 nM.
For `CCCCc1cc(C(=O)NN(Cc2ccc(-c3cccc(Cl)c3)cc2)C[C@@H](O)C(=O)O)[nH]n1` [Example 4-22, (R)-3-[N′-(5-Butyl-2H-pyrazole-3-carbonyl)-N-(3′-chlorobiphenyl-4-ylmethyl)-hydrazino]-2-hydroxy-propionic acid], the Ki was no more than 1 nM.
The result for `CC(C)Cc1cc(C(=O)NN(Cc2ccc(-c3cc(Cl)ccc3F)cc2)C[C@@H](O)C(=O)O)on1` [Example 8-30, (R)-3-[N-(5′-Chloro-2′-fluoro-biphenyl-4-ylmethyl)-N′-(3-isobutyl-isoxazole-5-carbonyl)-hydrazino]-2-hydroxy-propionic acid] reads no more than 1 nM.

The record behind these values is patent US9873696B2, “Neprilysin inhibitors” (THERAVANCE BIOPHARMA R&D IP, LLC, priority 2010, dated 2018).
